Results reported in ChEMBL document CHEMBL1141871, “Binding of amine-substituted N1-benzenesulfonylindoles at human 5-HT6 serotonin receptors” (Bioorg Med Chem Lett, 2005).

Target: 5-hydroxytryptamine receptor 6 (Homo sapiens, UniProt P50406)
Assay: Displacement of [3H]LSD from human 5HT6 receptor expressed in HEK293 cells
Type: cell-based

Sequence of 5-hydroxytryptamine receptor 6 (P50406 whole entry): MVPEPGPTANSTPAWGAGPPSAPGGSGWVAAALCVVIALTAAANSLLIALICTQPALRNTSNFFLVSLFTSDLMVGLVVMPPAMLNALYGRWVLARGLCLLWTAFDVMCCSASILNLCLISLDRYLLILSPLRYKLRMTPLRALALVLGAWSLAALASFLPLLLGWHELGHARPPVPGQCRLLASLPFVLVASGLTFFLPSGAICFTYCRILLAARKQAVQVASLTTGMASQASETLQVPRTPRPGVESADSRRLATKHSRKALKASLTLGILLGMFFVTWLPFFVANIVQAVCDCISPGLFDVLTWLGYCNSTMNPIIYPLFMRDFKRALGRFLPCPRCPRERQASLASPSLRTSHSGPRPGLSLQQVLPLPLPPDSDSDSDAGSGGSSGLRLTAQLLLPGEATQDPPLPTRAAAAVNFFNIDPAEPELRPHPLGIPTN

Ki [nM] | SMILES
26 | CNc1cc(NC)c2ccn(S(=O)(=O)c3ccccc3)c2c1
980 | Nc1ccc(S(=O)(=O)n2ccc3c([N+](=O)[O-])cc([N+](=O)[O-])cc32)cc1
10 | Nc1ccc(S(=O)(=O)n2ccc3ccccc32)cc1
1.9 | CNc1cc(NC)c2ccn(S(=O)(=O)c3ccc(N)cc3)c2c1
21 | CNc1cccc2c1ccn2S(=O)(=O)c1ccc(N)cc1
7 | CNc1ccc2ccn(S(=O)(=O)c3ccc(N)cc3)c2c1

SMILES | Ki [nM]
c1cc(N2CCNCC2)c2cc[nH]c2c1 | 2700
Nc1ccc(S(=O)(=O)n2ccc3c(N4CCNCC4)cccc32)cc1 | 0.4
